Results on one molecule are retold here after publication PMC8453745, “Human Mass Balance and Metabolite Profiling of [^14C]‐Pamiparib, a Poly (ADP‐Ribose) Polymerase Inhibitor, in Patients With Advanced Cancer” (Clinical Pharmacology in Drug Development, 2021).

The structures appear in SMILES notation. “And” between values parts separate entries of the source, which are not always exact repeats. Equal values may be shown once. Read-outs that look alike come from different tables or passages of the source.

The nature of series [1]: plasma pamiparib pharmacokinetics in patients (LC‐MS/MS). The series is classed as in vivo, human. The settings on record: for Cmax / half-life: plasma, po. An excerpt: Part 1 of the study included a screening phase of up to 28 days prior to drug administration to assess eligibility. Patients were admitted to the clinical research unit (CRU) at Royal Liverpool University Hospital (Liverpool, UK)/Clatterbridge Cancer Centre NHS Foundation Trust (Bebington, Wirral, UK) on day −1 and received a single dose of 60‐mg/100 μCi [^14C]‐pamiparib orally the morning of day 1. Patients remained in the CRU until completion of assessments on day 7, when discharge criteria of ≈90% of the radioactive dose being recovered or <1% of the radioactive dose being recovered in urine and feces for 2 consecutive 24‐hour collection intervals were met. If discharge criteria were not met by day 7, patients collected 24‐hour excreta samples up to day 14 on an outpatient basis. Part 2 of the study, evaluating the safety/tolerability and antitumor activity of 60 mg twice‐daily pamiparib in patients with advanced and/or metastatic solid tumors, is ongoing and is not included in this report.
Patients fasted overnight and 2 hours after oral administration of a single 60‐mg dose containing ≈100 μCi (3.7‐3.9 MBq) of [^14C]‐pamiparib with ≈240 mL of room‐temperature water or juice (orange or grape). The residual radioactivity present in each vial postdose was corrected from the dose. The radioactive dose of 100 μCi of [^14C]‐pamiparib provided minimum risk to patients according to the dosimetry calculation from a quantitative whole‐body autoradiography study in male and female Long Evans rats; the dose also provided sufficient signal for total radioactivity counting and quantitative radioprofiling in blood, plasma, and excreta (data on file). Patients were not permitted to lie in the supine position for 2 hours after drug administration, except if required because of an adverse event (AE) and/or study procedure.
Total radioactivity was analyzed at Covance Laboratories (Harrogate, North Yorkshire, UK), and metabolite profiling was conducted at Covance Laboratories (Madison, Wisconsin). Determination of pamiparib concentrations in plasma and total radioactivity in plasma and whole blood was performed predose and 0.25, 0.5, 1, 1.5, 2, 2.5, 3, 6, 12, 24, 48, 72, 96, 120, and 144 hours postdose. Pamiparib concentrations in plasma and urine were determined at Covance Laboratories (Salt Lake City, Utah) with validated liquid chromatography‐tandem mass spectrometry (LC‐MS/MS) methods.
An aliquot of human plasma (25 μL) containing dipotassium ethylenediaminetetraacetic acid as anticoagulant or urine (25 μL) was added with the internal standard (20.0 μL of 400 ng/mL BGB‐326) in water:ACN (50:50 v/v) followed by the addition of water:ACN (50:50 v/v, 20.0 μL). The plasma samples were centrifugated and vortexed followed by the addition of 200 μL of 5% NH4OH and 100 μL of water. After centrifugation, the supernatant (50 μL) was loaded to Biotage Isolute supported liquid extraction plate (Biotage, Holliston, Massachusetts) and eluted with methyl tert‐butyl ether (700 μL). The eluted samples were dried down at 45°C in TurboVap for 30 minutes and reconstituted in 400 μL of water:MeOH (80:20 v/v), followed by LC‐MS/MS analysis. The urine samples were centrifuged and vortexed followed by the addition of 200 μL of ACN. After centrifugation, 100 μL of the samples was transferred to a plate followed by the addition of 300 μL of water. The samples were centrifugated again before LC‐MS/MS analysis. The LC‐MS/MS instrumentation was the same for plasma and urine analysis including a LEAP autosampler (LEAP Technologies, Chapel Hill, North Carolina), a Shimadzu SCL‐10A controller with LC‐10AD pump (Shimadzu, Columbia, Maryland), and a Sciex API 5000 mass spectrometer (Sciex, Framingham, Massachusetts) equipped with a XBridge Phenyl column (2.1 × 50 mm, 5 μm; Waters, Pleasanton, California). The mobile phase A is 10 mM ammonium formate in water, and mobile phase B is MeOH:ACN (50:50 v/v). […]

Details of series [2]: method as in PMID 32652442. The settings on record: after oral administration in mice; cited from earlier work.
[3] abbreviates: single oral 60 mg/100 μCi, n = 4.

One may read the Cmax as the peak of the concentration-time curve. The term Tmax denotes the time from dosing to the highest level. In the case of `C[C@]12CCCN1CC1=NNC(=O)c3cc(F)cc4[nH]c2c1c34` [Pamiparib], in series [1], the “geometric coefficient of variation of parent AUCs among 4 subjects” value is recorded as < 22%. Moreover, the AUC in series [1] (human, oral, 60 mg, as printed in discussion, read-out: AUC0‐t, geometric mean (LC‐MS/MS)) amounted to 29.2 µg·h/mL. Also, the Cmax in series [1] (human, 60 mg, single oral 60 mg/100 μCi, n = 4, read-out: Cmax, arithmetic mean (SD)) came out at 2.21 µg/mL; in series [1] (human, 60 mg, single oral 60 mg/100 μCi, n = 4, read-out: Cmax, geometric mean (CV%)) it was 2.19 µg/mL. In addition, the half-life in series [1] (human, 60 mg, single oral 60 mg/100 μCi, n = 4, read-out: t1/2, arithmetic mean (SD) (converted)) is 29.2 h; in series [1] (human, 60 mg, single oral 60 mg/100 μCi, n = 4, read-out: t1/2, geometric mean (CV%) (converted)), 28.7 h. Also, in series [1] (human, single oral 60 mg/100 μCi, n = 4, read-out: tmax, median (min, max)), the time to peak (Tmax) is 2 h. In addition, the “CL/F, arithmetic mean (SD)” value in series [1] (setting [3]) is on record as 2.25 (0.55) L/h. Further, the “CL/F, geometric mean (CV%)” value is 2.21 (23.2) L/h in series [1] (setting [3]); “≈ 2.2 L/h and 2.21 L/h” in series [1] (single oral 60 mg/100 μCi, n = 4, listed as pamiparib). Moreover, the brain penetrance entry in series [2] is “brain penetrance”.
